{"source": "BindingDB's records for doi:10.1021/jm010576e", "about": "(Chiba University, 2002)"}
{"assay": "Binding affinity using guinea pig brain membrane preparations, towards Opioid receptor delta 1 using [3H]DPDPE as radioligand", "units": {"Ki": "µM"}}
{"compound": "CC[C@@H]1CN2CCc3c([nH]c4cccc(O)c34)[C@@H]2C[C@@H]1/C(=C\\OC)C(=O)OC", "Ki": 30.9}
{"compound": "CC[C@@H]1CN2CC[C@@]3(O)C(=Nc4cccc(OC)c43)[C@@H]2C[C@@H]1/C(=C\\OC)C(=O)OC", "Ki": 0.155}
{"compound": "CC[C@@H]1CN2CCc3c([nH]c4cccc(OC)c34)[C@@H]2C[C@@H]1/C(=C\\OC)C(=O)OC", "note": "[CHEBI:6956]", "Ki": 0.06}
{"compound": "CC[C@@H]1CN2CCc3c([nH]c4ccccc34)[C@@H]2C[C@@H]1/C(=C\\OC)C(=O)OC", "note": "[CHEBI:70073]", "Ki": 2.88}
